# From EP2951180B1, “2,6,7,8 SUBSTITUTED PURINES AS HDM2 INHIBITORS” (Merck Sharp & Dohme Corp., priority 2013, dated 2014)
# Target: T1, HDM2 (Homo sapiens, UniProt Q00987)
# T1 construct: Thioredoxin (N); made in house; host or cells: E. coli strain BL21(DE3)Rosetta
# Assay: HDM2 FRET assay (inhibition of binding of FITC labeled p53-pocket peptide to HDM2)
# Details: Table 26; read-out: FRET IC50
# Summary of the method: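 Compounds were tested in 10-point serial dilution against 0.5 nM recombinant HDM2 binding 3 nM fluorescein-labeled p53-pocket peptide. Detection used 0.25 nM terbium cryptate anti-6xHis antibody in PBS buffer containing 0.01% BSA and 0.01% Tween-20.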
# T1 sequence (Q00987 17-125): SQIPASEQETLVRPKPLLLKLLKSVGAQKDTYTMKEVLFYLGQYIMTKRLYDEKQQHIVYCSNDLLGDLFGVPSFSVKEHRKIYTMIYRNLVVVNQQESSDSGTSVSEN
row,Structure (SMILES),IC50
1,"CC1CN(c2nc(-c3noc(=O)[nH]3)nc3nc(N4CCOC[C@H]4c4ccccc4)n(C[C@H]4CC[C@H](C)CC4)c23)CCO1 (stereo partly drawn) [Example 26.3, 3-{7-[(trans-4-methylcyclohexyl)methyl]-6-(2-methylmorpholin-4-yl)-8-[(3R)-3-phenylmorpholin-4-yl]-7H-purin-2-yl}-1,2,4-oxadiazol-5(4H)-one]",14.5 nM

# Target: T1, HDM2
# Assay: FRET assay (HDM2 inhibition; method not described in this part)
# Type: binding
# Details: Table 1
row,Structure (SMILES),IC50
1,"CCC(C)c1ccnc(-c2nc3nc(C(=O)O)nc(N[C@H](C)C4CCC4)c3n2Cc2ccc(C(F)(F)F)cc2)c1 (single isomer, unassigned) [Example 1.14]",3.65 nM
2,"CCC(C)c1ccnc(-c2nc3nc(C(=O)O)nc(N[C@H](C)C4CCC4)c3n2Cc2ccc(C(F)(F)F)cc2)c1 (single isomer, unassigned) [Example 1.15]",3.32 nM
3,"C[C@@H](Nc1nc(C(=O)O)nc2nc(-c3cc(N(C)C)ccc3OC(F)(F)F)n(Cc3ccc(C(F)(F)F)cc3)c12)C1CCC1 [Example 1.1, (R)-6-((1-cyclobutylethyl)amino)-8-(5-(dimethylamino)-2-(trifluoromethoxy)phenyl)-7-(4-(trifluoromethyl)benzyl)-7H-purine-2-carboxylic acid]",11.4 nM
4,"CCc1ccc(Cl)c(-c2nc3nc(C(=O)O)nc(N[C@H](C)C4CCC4)c3n2Cc2ccc(C(F)(F)F)cc2)c1 [Example 1.2, (R)-8-(2-chloro-5-ethylphenyl)-6-((1-cyclobutylethyl)amino)-7-(4-(trifluoromethyl)benzyl)-7H-purine-2-carboxylic acid]",23.7 nM
5,"CC(C)c1ccc(OC(F)(F)F)c(-c2nc3nc(C(=O)O)nc(N[C@H](C)C4CCC4)c3n2Cc2ccc(C(F)(F)F)c(F)c2)c1 [Example 1.3, (R)-6-((1-cyclobutylethyl)amino)-7-(3-fluoro-4-(trifluoromethyl)benzyl)-8-(5-isopropyl-2-(trifluoromethoxy)phenyl)-7H-purine-2-carboxylic acid]",15.2 nM
6,"CC(C)c1cc(-c2nc3nc(C(=O)O)nc(N[C@H](C)C4CCC4)c3n2Cc2ccc(C(F)(F)F)cc2)ccn1 [Example 1.4, (R)-6-((1-cyclobutylethyl)amino)-8-(2-isopropylpyridin-4-yl)-7-(4-(trifluoromethyl)benzyl)-7H-purine-2-carboxylic acid]",58.8 nM
7,"C=C(C)c1cc(C)nc(-c2nc3nc(C(=O)O)nc(N[C@H](C)C4CCC4)c3n2Cc2ccc(C(F)(F)F)cc2)c1 [Example 1.5, (R)-6-((1-cyclobutylethyl)amino)-8-(6-methyl-4-(prop-1-en-2-yl)pyridin-2-yl)-7-(4-(trifluoromethyl)benzyl)-7H-purine-2-carboxylic acid]",50.2 nM
8,"CC(C)c1ccnc(-c2nc3nc(C(=O)O)nc(N[C@H](C)C4CCC4)c3n2Cc2ccc(Cl)c(F)c2)c1 [Example 1.6, 7-(4-chloro-3-fluorobenzyl)-6-{[(1R)-1-cyclobutylethyl]amino}-8-[4-(propan-2-yl)pyridin-2-yl]-7H-purine-2-carboxylic acid]",2.79 nM
9,"CC(C)c1ccnc(-c2nc3nc(C(=O)O)nc(N[C@H](C)C4CCC4)c3n2Cc2ccc(C(F)(F)F)s2)c1 [Example 1.7, 6-{[(1R)-1-cyclobutylethyl]amino}-8-[4-(propan-2-yl)pyridin-2-yl]-7-{[5-(trifluoromethyl)thiophen-2-yl]methyl}-7H-purine-2-carboxylic acid]",26.9 nM
10,"C[C@@H](Nc1nc(C(=O)O)nc2nc(-c3cc(C(O)c4ccccc4)ccn3)n(Cc3ccc(C(F)(F)F)cc3)c12)C1CCC1 (stereo partly drawn) [Example 1.8, 6-(((R)-1-cyclobutylethyl)amino)-8-(4-(hydroxy(phenyl)methyl)pyridin-2-yl)-7-(4-(trifluoromethyl)benzyl)-7H-purine-2-carboxylic acid]",20.1 nM
11,"C[C@@H](Nc1nc(C(=O)O)nc2nc(-c3cc(Cc4ccccc4)ccn3)n(Cc3ccc(C(F)(F)F)cc3)c12)C1CCC1 [Example 1.9, (R)-8-(4-benzylpyridin-2-yl)-6-((1-cyclobutylethyl)amino)-7-(4-(trifluoromethyl)benzyl)-7H-purine-2-carboxylic acid]",37.4 nM
12,"CC(C)c1cc(-c2nc3nc(C(=O)O)nc(N[C@H](C)C4CCC4)c3n2Cc2ccc(C(F)(F)F)cc2)ncc1F [Example 1.10, (R)-6-((1-cyclobutylethyl)amino)-8-(5-fluoro-4-isopropylpyridin-2-yl)-7-(4-(trifluoromethyl)benzyl)-7H-purine-2-carboxylic acid]",3.96 nM
13,"CC(C)c1ccc(O)c(-c2nc3nc(C(=O)O)nc(N[C@H](C)C4CCC4)c3n2Cc2ccc(C(F)(F)F)cc2)c1 [Example 1.11, (R)-6-((1-cyclobutylethyl)amino)-8-(2-hydroxy-5-isopropylphenyl)-7-(4-(trifluoromethyl)benzyl)-7H-purine-2-carboxylic acid]",50.3 nM
14,"CCOc1ccc(C(C)C)cc1-c1nc2nc(C(=O)O)nc(N[C@H](C)C3CCC3)c2n1Cc1ccc(C(F)(F)F)cc1 [Example 1.12, (R)-6-((1-cyclobutylethyl)amino)-8-(2-ethoxy-5-isopropylphenyl)-7-(4-(trifluoromethyl)benzyl)-7H-purine-2-carboxylic acid]",29.4 nM
15,"CC(C)c1ccnc(-c2nc3nc(C(=O)O)nc(N(C)[C@H](C)C4CCC4)c3n2Cc2ccc(C(F)(F)F)c(F)c2)c1 [Example 1.13, (R)-6-((1-cyclobutylethyl)(methyl)amino)-7-(3-fluoro-4-(trifluoromethyl)benzyl)-8-(4-isopropylpyridin-2-yl)-7H-purine-2-carboxylic acid]",158 nM
16,"C[C@@H](Nc1nc(C(=O)O)nc2nc(-c3ccccn3)n(Cc3ccc(C(F)(F)F)cc3)c12)C1CCC1 [Example 1.16, 6-{[(1R)-1-cyclobutylethyl]amino}-8-pyridin-2-yl-7-[4-(trifluoromethyl)benzyl]-7H-purine-2-carboxylic acid]",25.3 nM
17,"Cc1ccnc(-c2nc3nc(C(=O)O)nc(N[C@H](C)C4CCC4)c3n2Cc2ccc(C(F)(F)F)cc2)c1 [Example 1.17, 6-{[(1R)-1-cyclobutylethyl]amino}-8-(4-methylpyridin-2-yl)-7-[4-(trifluoromethyl)benzyl]-7H-purine-2-carboxylic acid]",12.7 nM
18,Cc1cccnc1-c1nc2nc(C(=O)O)nc(N[C@H](C)C3CCC3)c2n1Cc1ccc(C(F)(F)F)cc1 [Example 1.18],45.7 nM
19,Cc1cccc(-c2nc3nc(C(=O)O)nc(N[C@H](C)C4CCC4)c3n2Cc2ccc(C(F)(F)F)cc2)n1 [Example 1.19],42.5 nM
20,"COc1ccc(-c2nc3nc(C(=O)O)nc(N[C@H](C)C4CCC4)c3n2Cc2ccc(C(F)(F)F)cc2)nc1 [Example 1.20, 6-{[(1R)-1-cyclobutylethyl]amino}-8-(5-methoxypyridin-2-yl)-7-[4-(trifluoromethyl)benzyl]-7H-purine-2-carboxylic acid]",24.1 nM
21,"Cc1ccc(C)c(-c2nc3nc(C(=O)O)nc(N[C@H](C)C4CCC4)c3n2Cc2ccc(C(F)(F)F)cc2)n1 [Example 1.21, 6-{[(1R)-1-cyclobutylethyl]amino}-8-(3,6-dimethylpyridin-2-yl)-7-[4-(trifluoromethyl)benzyl]-7H-purine-2-carboxylic acid]",27 nM
22,CC(C)c1ccnc(-c2nc3nc(C(=O)O)nc(N[C@H](C)C4CCC4)c3n2Cc2ccc(C(F)(F)F)cc2)c1 [Example 1.22],4.22 nM
